Results on 4 molecules are retold here after PubChem BioAssay AID1259407 (Chemical Carcinogenesis Research Information System (CCRIS), 2018).

Active and inactive are the calls of the source. The rule behind the calls is not given here.

For this data set, the system named is CCRIS mutagenicity, Ames/micronucleus/aberration tests. The data set can be described thus: CCRIS mutagenicity studies.
Where [1] appears, read: Test System: AMES SALMONELLA TYPHIMURIUM, Strain/Indicator: TA98, Metabolic Activation: NONE, Method: STANDARD PLATE.
[2] abbreviates: Test System: AMES SALMONELLA TYPHIMURIUM, Strain/Indicator: TA100, Metabolic Activation: NONE, Method: STANDARD PLATE.
Setting [3] is: Test System: AMES SALMONELLA TYPHIMURIUM, Strain/Indicator: TA1535, Metabolic Activation: NONE, Method: STANDARD PLATE.

Regarding `O=NN1CCC[C@H]1c1cccnc1`, the mutagenic call (Test System: AMES SALMONELLA TYPHIMURIUM, Strain/Indicator: TA98, Metabolic Activation: HAMSTER, LIVER, S-9, AROCLOR 1254, Method: STANDARD PLATE) was “inactive; negative”; the mutagenic call under setting [1] was “inactive; negative”; the mutagenic call (Test System: AMES SALMONELLA TYPHIMURIUM, Strain/Indicator: TA98, Metabolic Activation: RAT, LIVER, S-9, AROCLOR 1254, Method: STANDARD PLATE) was “inactive; negative”; the mutagenic call (Test System: AMES SALMONELLA TYPHIMURIUM, Strain/Indicator: TA100, Metabolic Activation: HAMSTER, LIVER, S-9, AROCLOR 1254, Method: STANDARD PLATE) was “inactive; negative”; the mutagenic call (Test System: AMES SALMONELLA TYPHIMURIUM, Strain/Indicator: TA100, Metabolic Activation: NONE, Method: PREINCUBATION) is “active; positive”; the mutagenic call under setting [2] is “inactive; negative”. For the same molecule, the mutagenic call (Test System: AMES SALMONELLA TYPHIMURIUM, Strain/Indicator: TA100, Metabolic Activation: RABBIT, LUNG, CLARA CELLS, Method: PREINCUBATION) is “inactive; negative”; the mutagenic call (Test System: AMES SALMONELLA TYPHIMURIUM, Strain/Indicator: TA100, Metabolic Activation: RABBIT, LUNG, MACROPHAGES, Method: PREINCUBATION) was “inactive; negative”; the mutagenic call (Test System: AMES SALMONELLA TYPHIMURIUM, Strain/Indicator: TA100, Metabolic Activation: RABBIT, LUNG, S-9, Method: PREINCUBATION) is “active; positive”; the mutagenic call (Test System: AMES SALMONELLA TYPHIMURIUM, Strain/Indicator: TA100, Metabolic Activation: RABBIT, LUNG, TYPE II CELLS, Method: PREINCUBATION) was “inactive; negative”; the mutagenic call (Test System: AMES SALMONELLA TYPHIMURIUM, Strain/Indicator: TA100, Metabolic Activation: RAT LIVER S-9, AROCLOR 1254, Method: PREINCUBATION) is “inactive; negative”; the mutagenic call (Test System: AMES SALMONELLA TYPHIMURIUM, Strain/Indicator: TA1530, Metabolic Activation: RABBIT, LUNG, CLARA CELLS, Method: PREINCUBATION) is “inactive; negative”. For the same molecule, the mutagenic call is “inactive; negative” (Test System: AMES SALMONELLA TYPHIMURIUM, Strain/Indicator: TA1530, Metabolic Activation: RABBIT, LUNG, MACROPHAGES, Method: PREINCUBATION); “active; positive” (Test System: AMES SALMONELLA TYPHIMURIUM, Strain/Indicator: TA1530, Metabolic Activation: RABBIT, LUNG, S-9, Method: PREINCUBATION); “inactive; negative” (Test System: AMES SALMONELLA TYPHIMURIUM, Strain/Indicator: TA1530, Metabolic Activation: RABBIT, LUNG, TYPE II CELLS, Method: PREINCUBATION); “active; positive” (Test System: AMES SALMONELLA TYPHIMURIUM, Strain/Indicator: TA1535, Metabolic Activation: HAMSTER, LIVER, S-9, AROCLOR 1254, Method: STANDARD PLATE); “inactive; negative” under setting [3]; “inactive; negative” (Test System: AMES SALMONELLA TYPHIMURIUM, Strain/Indicator: TA1535, Metabolic Activation: RAT, LIVER, S-9, AROCLOR 1254, Method: STANDARD PLATE). Further, the mutagenic call runs as follows: (Test System: AMES SALMONELLA TYPHIMURIUM, Strain/Indicator: TA1537, Metabolic Activation: HAMSTER, LIVER, S-9, AROCLOR 1254, Method: STANDARD PLATE) “inactive; negative”; (Test System: AMES SALMONELLA TYPHIMURIUM, Strain/Indicator: TA1537, Metabolic Activation: NONE, Method: STANDARD PLATE) “inactive; negative”; (Test System: AMES SALMONELLA TYPHIMURIUM, Strain/Indicator: TA1537, Metabolic Activation: RAT, LIVER, S-9, AROCLOR 1254, Method: STANDARD PLATE) “inactive; negative”; (Test System: AMES SALMONELLA TYPHIMURIUM, Strain/Indicator: TA1538, Metabolic Activation: HAMSTER, LIVER, S-9, AROCLOR 1254, Method: STANDARD PLATE) “inactive; negative”; (Test System: AMES SALMONELLA TYPHIMURIUM, Strain/Indicator: TA1538, Metabolic Activation: NONE, Method: STANDARD PLATE) “inactive; negative”; (Test System: AMES SALMONELLA TYPHIMURIUM, Strain/Indicator: TA1538, Metabolic Activation: RAT, LIVER, S-9, AROCLOR 1254, Method: STANDARD PLATE) “inactive; negative”. Besides, the mutagenic call (Test System: AMES SALMONELLA TYPHIMURIUM, Strain/Indicator: TA7004, Metabolic Activation: HAMSTER LIVER S-9, AROCLOR 1254, Method: PREINCUBATION) was “inactive; negative”; the mutagenic call (Test System: AMES SALMONELLA TYPHIMURIUM, Strain/Indicator: TA7004, Metabolic Activation: NONE, Method: PREINCUBATION) is “active; positive”; the mutagenic call (Test System: AMES SALMONELLA TYPHIMURIUM, Strain/Indicator: TA7004, Metabolic Activation: RAT LIVER S-9, AROCLOR 1254, Method: PREINCUBATION) was “inactive; negative”; the mutagenic call (Test System: CHINESE HAMSTER V-79, Strain/Indicator: V-79 (HPRT)/6-THIOGUANINE, Metabolic Activation: RAT, HEPATOCYTES) is “inactive; negative”; the mutagenic call (Test System: CHINESE HAMSTER V-79, Strain/Indicator: V-79 (HPRT)/6-THIOGUANINE, Metabolic Activation: RAT, LIVER, S-9, AROCLOR 1254) is “inactive; negative”; the mutagenic call (Test System: UDS RABBIT LUNG CLARA CELLS, Strain/Indicator: THY INCORP, Metabolic Activation: NONE, Method: LIQUID SCINTILLATION COUNTING) is “inactive; negative”. Also, the mutagenic call by setting is: (Test System: UDS RABBIT LUNG MACROPHAGES, Strain/Indicator: THY INCORP, Metabolic Activation: NONE, Method: LIQUID SCINTILLATION COUNTING) “inactive; negative”; (Test System: UDS RABBIT LUNG TYPE II CELLS, Strain/Indicator: THY INCORP, Metabolic Activation: NONE, Method: LIQUID SCINTILLATION COUNTING) “inactive; negative”; (Test System: UDS RODENT HEPATOCYTES, Strain/Indicator: THY INCORP (NON-S-PHASE), Method: AUTORADIOGRAPHY) “active; positive”.

In the case of `ONc1ccc(-c2ccccc2)cc1`, the mutagenic call (Test System: AMES SALMONELLA TYPHIMURIUM, Strain/Indicator: TA98(1,8-DNP6), Metabolic Activation: NONE, Method: PREINCUBATION) was “active; positive”; the mutagenic call (Test System: AMES SALMONELLA TYPHIMURIUM, Strain/Indicator: TA98, Metabolic Activation: NONE, Method: PREINCUBATION) is “active; positive”; the mutagenic call under setting [1] was “active; positive”; the mutagenic call (Test System: AMES SALMONELLA TYPHIMURIUM, Strain/Indicator: TA98, Metabolic Activation: S-9, Method: STANDARD PLATE) was “active; positive”; the mutagenic call under setting [2] is “active; positive”; the mutagenic call (Test System: AMES SALMONELLA TYPHIMURIUM, Strain/Indicator: TA100, Metabolic Activation: S-9, Method: STANDARD PLATE) is “active; positive”. Also, the mutagenic call was “inactive; negative” under setting [3]; “active; positive” (Test System: AMES SALMONELLA TYPHIMURIUM, Strain/Indicator: YG1024, Metabolic Activation: NONE, Method: PREINCUBATION); “active; positive” (Test System: E. COLI, Strain/Indicator: WP2, Metabolic Activation: NONE, Method: PREINCUBATION); “active; positive” (Test System: E. COLI, Strain/Indicator: WP2 UVRA(P), Metabolic Activation: NONE, Method: STANDARD PLATE); “active; positive” (Test System: E. COLI, Strain/Indicator: WP2 UVRA, Metabolic Activation: NONE, Method: FLUCTUATION TEST); “active; positive” (Test System: E. COLI, Strain/Indicator: WP2 UVRA, Metabolic Activation: NONE, Method: PREINCUBATION). The mutagenic call (Test System: E. COLI, Strain/Indicator: WP2 UVRA, Metabolic Activation: NONE, Method: STANDARD PLATE) was “active; positive”.

As for `COC(=O)[C@H]1O[C@H]1c1ccccc1`, under setting [2], the mutagenic call is “active; positive”.

As for `O=Nc1c2ccccc2c2ccc3cccc4ccc1c2c43`, the mutagenic call is “active; positive” (Test System: AMES SALMONELLA TYPHIMURIUM, Strain/Indicator: TA97, Metabolic Activation: NONE, Method: STANDARD PLATE); “active; positive” (Test System: AMES SALMONELLA TYPHIMURIUM, Strain/Indicator: TA98 (1,8-DNP6), Metabolic Activation: NONE, Method: STANDARD PLATE); “active; positive” (Test System: AMES SALMONELLA TYPHIMURIUM, Strain/Indicator: TA98 (NR), Metabolic Activation: NONE, Method: STANDARD PLATE); “active; positive” (Test System: AMES SALMONELLA TYPHIMURIUM, Strain/Indicator: TA98, Metabolic Activation: NONE', Method: STANDARD PLATE); “active; positive” under setting [1]; “active; positive” under setting [2]. Further, the mutagenic call runs as follows: (Test System: AMES SALMONELLA TYPHIMURIUM, Strain/Indicator: TA104, Metabolic Activation: NONE, Method: STANDARD PLATE) “active; positive”; (Test System: CHINESE HAMSTER OVARY, Strain/Indicator: CHO-K1-BH4 (HGPRT), Metabolic Activation: NONE) “active; positive”.
